According to patent US20190321345A1, “GLUT4 Selective Inhibitors for Cancer Therapy” (Emory University, priority 2016, published 2019):

Key:
[1] = test system: CD38+/CD45- gated myeloma cells from myeloma patient bone marrow aspirates; experiment: Cell death of myeloma cells from MM patient bone marrow aspirates; format: cell-based, human
Description: CD38-phyocerythrin and CD45-allophycocyanin-Cy7 positive myeloma cells were evaluated for cell death.
(§1) KD of GLUT4 and glucose deprivation lead to variable suppression of the pro-survival anti-apoptotic protein MCL-1. […] Cells resistant to glucose deprivation-induced cell death increase binding of pro-apoptotic BIM to BCL-2, facilitating sensitization to the BH3 mimetic venetoclax (ABT-199). 22 Treatment of glucose-deprived resistant cells with ABT-199 releases the additional BIM bound to BCL-2, inducing apoptosis. […] Compound 20 was evaluated for sensitizing MM patient samples to ABT-199. CD38+/CD45− gated myeloma cells from myeloma patient bone marrow aspirates were evaluated for viability after 48 hrs of treatment. […] The ability of compound 20 to sensitize MM cells and induce cell death to the commonly used steroid dexamethasone (Dex) was tested. […] To rule out the cytotoxic effect of co-treatment of compound 20 with either ABT-199 or dexamethasone on other non-myeloma cell populations, cell viability of CD38−/CD45− and CD38−/CD45+ cells were analyzed within the MM patient sample bone marrow aspirate (FIG. 6G). […] Lastly, compound 20 was also found to sensitize MM.15 cells to a dose range of the alkylating agent melphalan (Mel) that was assessed in a 72 hr treatment period (FIG. 6H).

KMS11-GFP cells = experiment: Proliferation of KMS11-GFP myeloma cells (Cell Titre Glo); format: cell-based
Description: (§2) IC50 studies were performed using the CellTiter-Glo assay (Promega, Madison, Wis.). 20,000 cells in 100 ul complete RPMI 1640 medium were plated per well in 96-well plates, with a concentration range of individual compounds. After 72 h incubation, 100 uL Glo reagent were added to each well and luminescence was measured using a Biotek Synergy 4 multimode plate reader. Cell number was assessed by trypan blue standing and an automatic cell counter (Biorad). For cell viability assays 0.125×10^6 cells/mL were treated with the indicated concentration of drug, washed with 1×PBS and evaluated for viability by AnnexinV/DAPI staining and flow cytometry. Data analysis was per-formed with the FCS express version 3 (De Novo software, Los Angeles).
(§3) Compound were selected as a lead based on its low IC50, selectivity for inhibition of glucose transport through GLUT4, and inhibition of the KMS11-GFP cell line proliferation in contrast to the GLUT1 expressing isogenic line. Compounds were assessed in a high-throughput proliferation-based assay using an isogenic MM (KMS11) cell line pair overexpressing GLUT1 or GFP (as a control) (model of screen is depicted in FIG. 2A). […] Isogenic KMS11-GFP/GLUT1 overexpressing myeloma cell lines were treated with a dose range of the indicated test compound for 72 hours followed by evaluation of viable cell number by Cell Titre Glo assay

MCL-1 = experiment: Immunoblot of MCL-1 expression in MM cells; format: cell-based; conditions: L363 cells vs JJN3, 15 μM for 18 hours
[2] = test system: CD38-/CD45- and CD38-/CD45+ cells; experiment: Viability of normal non-myeloma cell populations in MM patient bone marrow aspirate; format: cell-based; conditions: in combination with either ABT-199 or Dex
Text: Data from patient #6 is representative of patient samples evaluated.
as §1, with “tested. Compound 20 treated MM.1S cells were exposed to a dose range of Dex (0.00195 μM to 1 μM) for 72 hr (FIG. 6E).” for “tested.”

GLUT4 = target: T1, GLUT4 (Homo sapiens, UniProt P14672); experiment: 2-DOG transport in HEK293 cells over-expressing GLUT4; format: cell-based; conditions: for IC50: pre-treated 5 minutes, 2-DOG uptake 4 min, cells lacking GLUT1, read-out: IC50 (inhibition of 2-DOG transport in HEK cells over-expressing GLUT isoforms) GLUT4
T1 construct: expressed in transfected cells; host or cells: HEK293 stably expressing GLUT1 shRNA
T1 sequence (P14672 1-509): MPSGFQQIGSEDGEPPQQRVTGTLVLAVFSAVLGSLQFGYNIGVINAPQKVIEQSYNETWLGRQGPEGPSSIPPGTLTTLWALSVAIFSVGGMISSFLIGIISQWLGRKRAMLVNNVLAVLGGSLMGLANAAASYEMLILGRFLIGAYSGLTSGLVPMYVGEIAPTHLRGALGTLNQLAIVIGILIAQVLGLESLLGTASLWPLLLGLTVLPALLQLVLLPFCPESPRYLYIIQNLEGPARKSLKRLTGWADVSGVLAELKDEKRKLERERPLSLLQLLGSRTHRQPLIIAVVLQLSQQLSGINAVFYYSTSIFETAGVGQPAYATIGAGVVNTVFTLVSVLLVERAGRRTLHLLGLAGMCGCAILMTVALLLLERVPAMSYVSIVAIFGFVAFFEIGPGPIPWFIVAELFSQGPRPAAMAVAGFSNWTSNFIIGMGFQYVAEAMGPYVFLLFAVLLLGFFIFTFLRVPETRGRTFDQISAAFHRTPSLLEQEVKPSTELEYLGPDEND
Description: (§4) Tissue culture plates were pretreated with 25 μg/ml polyethyleneimine (Fluka, catalogue number P3143) in 150 mM NaCl for 20min to let cells adhere. JNN3 cells were subsequently plated and grown to 40-60% confluency in complete RPMI 1640 medium. HEK293 GLUT overexpressing cells were plated at 400,000 cells/ml overnight. Cells were then washed with glucose-free HEPES buffer twice and starved for 30 min. The uptake of 2-[^3H] deoxy-D-glucose (2-DOG) (50 μM) was measured in glucose-free HEPES buffer for 4-6 min at 37° C. Compound 20 (20 μM) was added 5-6 min prior to the addition of glucose depending on the specific assay. For the HEK293 GLUT overexpressing cells, non-specific uptake was measured in non-transfected HEK293 cells containing the shRNA GLUT1 knockdown and was subtracted from the experimental values. Data are plotted as percent uptake relative to unexposed HEK293 cultures. Data were normalized to fit by nonlinear regression analysis using GraphPad Prism software.
(§5) Compound 20 was further screened for GLUT4 selectivity by evaluating inhibition of glucose transport in HEK 293 cells exogenously over-expressing human GLUTs-1, -2, -3, -4, or -8 that also stably express GLUT1 shRNA (except the GLUT1 overexpressing cell line) to knock down endogenous GLUT1.
(§6) Glucose transport in HEK293 cells over-expressing GLUT1 or over-expressing GLUT4 or GLUT8 in cells lacking GLUT1 were used to evaluate inhibition of glucose transport. Cells were pre-treated with compound for 5 minutes followed by evaluation of […] uptake for 4 min at […]. Non-specific uptake was measured in nontransfected HEK293 cells containing the shRNA GLUT1 knockdown and was subtracted from the experimental values.

FAK = FAK activation, scratch assay; format: cell-based; conditions: FIG. 8
JJN3 cells [3] = experiment: Cell death with ABT-199 co-treatment in JJN3 cells (AnnexinV/DAPI); format: cell-based; conditions: co-treatment with ABT-199
Description: (§7) Cell death was evaluated by AnnexinV/DAPI flow cytometric staining.
as §2
(§8) KD of GLUT4 and glucose deprivation lead to variable suppression of the pro-survival anti-apoptotic protein MCL-1. […] Compound 20 was evaluated for sensitizing MM patient samples to ABT-199. CD38+/CD45− gated myeloma cells from myeloma patient bone marrow aspirates were evaluated for viability after 48 hrs of treatment. […] To rule out the cytotoxic effect of co-treatment of compound 20 with either ABT-199 or dexamethasone on other non-myeloma cell populations, cell viability of CD38−/CD45− and CD38−/CD45+ cells were analyzed within the MM patient sample bone marrow aspirate (FIG. 6G). […]

KMS11-GLUT1 cells = experiment: Proliferation of KMS11-GLUT1 myeloma cells (Cell Titre Glo); format: cell-based; conditions: inhibition of proliferation, 72 hours
Description: as §2, §3

KMS11 cells = experiment: Cell viability by AnnexinV/DAPI staining and flow cytometry in KMS11 cells; format: cell-based; conditions: compared with compounds 8, 9, 17
Description: as §2
They were selected and their effect on cell viability evaluated by AnnexinV/DAPI staining and flow cytometric analysis.

MM.1S cells = experiment: Cell death with dexamethasone or melphalan co-treatment in MM.1S cells (AnnexinV/DAPI); format: cell-based; conditions: 72 hr
Description: as §7, §2, §8

[4] = test system: follower lung cancer cell; experiment: Follower lung cancer cell invasion; format: cell-based; conditions: FIG. 7
[5] = test system: JJN3 cells expressing GLUT4 shRNA; experiment: Viability/proliferation of JJN3 cells with GLUT4 shRNA (trypan blue, cell counter); format: cell-based; conditions: 15 μM, 72 hours
Description: as §2
(§9) Impact of compound 20 was evaluated on glucose uptake in MM cells.

JJN3 cells [6] = experiment: 2-[3H]deoxyglucose uptake in JJN3 cells; format: cell-based; conditions: 20 μM, 6 min pre-treatment, 6 min uptake at 37 degrees C; compared with GLUT4 shRNA
Description: as §4, §9

L363 cells = experiment: Cell death with ABT-199 co-treatment in L363 cells (AnnexinV/DAPI); format: cell-based; conditions: 10 μM with 0.025 μM-3 μM ABT-199, 72 hours
Description: Compound 20 decreasing MCL-1 expression and sensitizing MM cell lines to Venetoclax (ABT-199),
as §7
as §2, with “Data analysis was per-formed with the FCS express version 3 (De Novo software, Los Angeles).” left out
as §8

GLUT8 = target: T2, GLUT8 (Homo sapiens, UniProt Q9NY64); experiment: 2-DOG transport in HEK293 cells over-expressing GLUT8; format: cell-based; conditions: pre-treated 5 minutes, 2-DOG uptake 4 min; cells lacking GLUT1; read-out: IC50 (inhibition of 2-DOG transport in HEK cells over-expressing GLUT isoforms) GLUT8
T2 construct: expressed in transfected cells; host or cells: HEK293 stably expressing GLUT1 shRNA
T2 sequence (Q9NY64 1-477): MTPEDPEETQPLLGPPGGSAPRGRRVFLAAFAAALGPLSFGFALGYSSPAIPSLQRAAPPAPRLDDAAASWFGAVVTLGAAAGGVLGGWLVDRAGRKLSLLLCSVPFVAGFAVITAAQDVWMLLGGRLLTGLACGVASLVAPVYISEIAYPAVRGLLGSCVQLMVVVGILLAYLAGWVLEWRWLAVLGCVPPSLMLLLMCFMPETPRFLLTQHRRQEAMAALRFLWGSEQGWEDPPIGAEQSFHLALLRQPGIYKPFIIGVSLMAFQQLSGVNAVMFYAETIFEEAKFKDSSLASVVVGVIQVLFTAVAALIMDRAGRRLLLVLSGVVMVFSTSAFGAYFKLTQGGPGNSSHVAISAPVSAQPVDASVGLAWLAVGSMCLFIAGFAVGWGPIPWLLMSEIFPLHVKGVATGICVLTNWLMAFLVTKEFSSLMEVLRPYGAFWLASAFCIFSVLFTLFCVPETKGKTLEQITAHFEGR
Description: as §4, §5, §6

H1299 cell = H1299 cell invasion; format: cell-based, human; conditions: FIG. 9

Row | SMILES | sensitization of MM patient samples to combination with dexamethasone ([1]; 0.5 μM dexamethasone and 10 μM compound 20, 48 hr) | relapse/refractory patient samples with greater apoptosis on co-treatment with ABT-199 than either drug alone ([1]; 10 μM with 0.5 μM ABT-199, 48 hrs) | EC50 (KMS11-GFP cells; inhibition of proliferation, 72 hours, Cell Titre Glo) [µM] | impact on proliferation in KMS11-GFP cells compared with KMS11-GLUT1 cells (KMS11-GFP cells; isogenic cell line pair) | MCL-1 expression (MCL-1) | viability of normal non-myeloma cell populations [2] | selectivity of glucose transport inhibition among human GLUTs-1, -2, -3, -4, -8 (GLUT4; HEK 293 cells over-expressing human GLUTs, 4 minute uptake of 2-DOG) | IC50 (GLUT4) [µM] | FAK activation (FAK) | sensitivity to ABT-199, JJN3 cell line (JJN3 cells [3]) | EC50 (KMS11-GLUT1 cells) [µM] | cell death in KMS11 cells (KMS11 cells) | sensitization to melphalan (Mel) (MM.1S cells; 10 μM with 0.01 μM-4 μM melphalan) | sensitization to dexamethasone (Dex), cell death in MM.1S (MM.1S cells; 10 μM with Dex 0.00195 μM to 1 μM) | follower lung cancer cell invasion [4] | viable cell counts in GLUT4 knockdown cells [5] | 2-DOG uptake in JJN3 cells (JJN3 cells [6]) | sensitivity to ABT-199, L363 cell line (L363 cells) | IC50 (GLUT8) [µM] | H1299 cell invasion (H1299 cell)
1 | COc1ccc(CC(=O)N(Cc2ccncc2)Cc2cccc(OCCc3ccc(F)cc3)c2)cc1 [Compound 20, N-(3-(4-fluorophenethoxy)benzyl)-2-(4-methoxyphenyl)-N-(pyridin-4-ylmethyl)acetamide] | sensitized | 4 of 7 | 13.4 | greater impact on proliferation in KMS11-GFP cells | significantly reduced | did not impact the viability | selective for GLUT4 over GLUTs 1, 2, 3 and 8 | 18.2 | inhibits FAK activation | increased sensitivity to ABT-199 | 21.8 | greater cell death | sensitize | significant sensitization and cell death | inhibits follower lung cancer cell invasion | no further reduction | effectively reduced | increased sensitivity to ABT-199 | – | –
2 | COc1ccc(C(=O)N(Cc2ccncc2)Cc2cccc(OCCc3ccc(F)cc3)c2)cc1 [Compound 26] | – | – | – | – | – | – | – | 3.5 | – | – | – | – | – | – | – | – | – | – | 6 | inhibits H1299 cell invasion
